Experimental data reported in patent EP4745135A1 (Gluetacs Therapeutics (Shanghai) Co., Ltd., priority 2023, dated 2025).

Assays:
[1] = target: T1, human Cereblon WT GST-tagged protein (Homo sapiens, UniProt Q96SW2); assay: CRBN-binding affinity, HTRF (CEREBLON BINDING kit); details: for inhibition at 0.5 µM: read-out: Inhibition Rate at 0.5 µM (%); for inhibition at 2 µM: read-out: Inhibition Rate at 2 µM (%)
T1 construct: purchased CISBIO 64BDCRBNPEH

[2] = system: Human myeloid monocytic leukemia cell (MV-4-11); assay: Tumor cell proliferation inhibition (CellTiter-Meiluncell luminescent cell viability assay); details: MV4-11, 96 h; for inhibition at 0.01 µM: read-out: Inhibition Rate at 10 nM (%); for inhibition at 0.5 µM: read-out: Inhibition Rate at 500 nM (%)
WEE1 = target: T2, WEE1 (Homo sapiens, UniProt P30291+Q96SW2); assay: Western blot, degradation of substrate protein in hPBMCs; type: cell-based
T2 construct: effects of the compounds of the present disclosure on the expression of target proteins in cells; endogenous in cells; host or cells: human PBMCs (Milecell Biotechnologies)

IKZF2 = target: T3, IKZF2 (Homo sapiens, UniProt Q96SW2+Q9UKS7); assay: as above; type: cell-based
T3 construct: effects of the compounds of the present disclosure on the expression of target proteins in cells; endogenous in cells; host or cells: human PBMCs (Milecell Biotechnologies)

IKZF3 = target: T4, IKZF3 (Homo sapiens, UniProt Q96SW2+Q9UKT9); assay: as above; type: cell-based
T4 construct: effects of the compounds of the present disclosure on the expression of target proteins in cells; endogenous in cells; host or cells: human PBMCs (Milecell Biotechnologies)

CK1α = target: T5, CK1α (Homo sapiens, UniProt P48729+Q96SW2); assay: as above; type: cell-based
T5 construct: effects of the compounds of the present disclosure on the expression of target proteins in cells; endogenous in cells; host or cells: human PBMCs (Milecell Biotechnologies)

IKZF1 = target: T6, IKZF1 (Homo sapiens, UniProt Q13422+Q96SW2); assay: as above; type: cell-based
T6 construct: effects of the compounds of the present disclosure on the expression of target proteins in cells; endogenous in cells; host or cells: human PBMCs (Milecell Biotechnologies)

GSPT1 = assay: as above; type: cell-based, Human
[3] = system: Human multiple myeloma cell (MM.1S); assay: Tumor cell proliferation inhibition (CellTiter-Meiluncell luminescent cell viability assay)
[4] = Western blot, 24 hours of compound treatment, compounds tested at 50 nM and 500 nM (concentration for the table not stated)
[5] = 24 hours treatment, compounds at 50 nM and 500 nM (concentration behind the class not stated)

T2 sequence (P30291 whole entry): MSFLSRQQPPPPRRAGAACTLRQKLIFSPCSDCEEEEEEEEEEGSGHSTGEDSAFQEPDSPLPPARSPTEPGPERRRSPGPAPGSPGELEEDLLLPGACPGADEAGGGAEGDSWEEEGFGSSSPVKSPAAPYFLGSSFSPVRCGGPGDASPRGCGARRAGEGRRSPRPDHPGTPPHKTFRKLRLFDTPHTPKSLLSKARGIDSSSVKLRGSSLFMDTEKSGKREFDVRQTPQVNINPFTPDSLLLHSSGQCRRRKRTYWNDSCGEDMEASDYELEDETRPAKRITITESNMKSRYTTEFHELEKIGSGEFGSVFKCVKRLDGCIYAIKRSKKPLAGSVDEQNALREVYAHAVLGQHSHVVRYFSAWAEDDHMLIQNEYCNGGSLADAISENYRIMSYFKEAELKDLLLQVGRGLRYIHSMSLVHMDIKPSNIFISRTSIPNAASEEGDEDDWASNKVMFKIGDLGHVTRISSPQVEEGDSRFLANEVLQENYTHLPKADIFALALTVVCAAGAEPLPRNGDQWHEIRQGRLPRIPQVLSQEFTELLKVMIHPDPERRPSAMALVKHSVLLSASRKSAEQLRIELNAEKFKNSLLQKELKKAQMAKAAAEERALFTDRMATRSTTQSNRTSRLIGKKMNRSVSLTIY
T2 sequence (Q96SW2 whole entry): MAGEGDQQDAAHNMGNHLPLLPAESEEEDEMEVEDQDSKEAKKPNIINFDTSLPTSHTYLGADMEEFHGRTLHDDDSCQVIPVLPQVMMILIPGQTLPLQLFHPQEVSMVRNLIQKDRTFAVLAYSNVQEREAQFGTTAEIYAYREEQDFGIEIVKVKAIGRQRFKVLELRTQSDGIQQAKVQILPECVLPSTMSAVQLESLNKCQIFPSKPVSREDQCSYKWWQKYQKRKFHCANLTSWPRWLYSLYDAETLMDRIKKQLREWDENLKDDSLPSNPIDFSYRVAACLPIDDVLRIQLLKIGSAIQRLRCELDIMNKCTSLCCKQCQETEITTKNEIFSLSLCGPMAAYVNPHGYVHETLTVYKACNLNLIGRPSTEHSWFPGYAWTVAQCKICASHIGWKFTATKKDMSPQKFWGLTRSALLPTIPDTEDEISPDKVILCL
T2 sequence (Q16531 whole entry partner): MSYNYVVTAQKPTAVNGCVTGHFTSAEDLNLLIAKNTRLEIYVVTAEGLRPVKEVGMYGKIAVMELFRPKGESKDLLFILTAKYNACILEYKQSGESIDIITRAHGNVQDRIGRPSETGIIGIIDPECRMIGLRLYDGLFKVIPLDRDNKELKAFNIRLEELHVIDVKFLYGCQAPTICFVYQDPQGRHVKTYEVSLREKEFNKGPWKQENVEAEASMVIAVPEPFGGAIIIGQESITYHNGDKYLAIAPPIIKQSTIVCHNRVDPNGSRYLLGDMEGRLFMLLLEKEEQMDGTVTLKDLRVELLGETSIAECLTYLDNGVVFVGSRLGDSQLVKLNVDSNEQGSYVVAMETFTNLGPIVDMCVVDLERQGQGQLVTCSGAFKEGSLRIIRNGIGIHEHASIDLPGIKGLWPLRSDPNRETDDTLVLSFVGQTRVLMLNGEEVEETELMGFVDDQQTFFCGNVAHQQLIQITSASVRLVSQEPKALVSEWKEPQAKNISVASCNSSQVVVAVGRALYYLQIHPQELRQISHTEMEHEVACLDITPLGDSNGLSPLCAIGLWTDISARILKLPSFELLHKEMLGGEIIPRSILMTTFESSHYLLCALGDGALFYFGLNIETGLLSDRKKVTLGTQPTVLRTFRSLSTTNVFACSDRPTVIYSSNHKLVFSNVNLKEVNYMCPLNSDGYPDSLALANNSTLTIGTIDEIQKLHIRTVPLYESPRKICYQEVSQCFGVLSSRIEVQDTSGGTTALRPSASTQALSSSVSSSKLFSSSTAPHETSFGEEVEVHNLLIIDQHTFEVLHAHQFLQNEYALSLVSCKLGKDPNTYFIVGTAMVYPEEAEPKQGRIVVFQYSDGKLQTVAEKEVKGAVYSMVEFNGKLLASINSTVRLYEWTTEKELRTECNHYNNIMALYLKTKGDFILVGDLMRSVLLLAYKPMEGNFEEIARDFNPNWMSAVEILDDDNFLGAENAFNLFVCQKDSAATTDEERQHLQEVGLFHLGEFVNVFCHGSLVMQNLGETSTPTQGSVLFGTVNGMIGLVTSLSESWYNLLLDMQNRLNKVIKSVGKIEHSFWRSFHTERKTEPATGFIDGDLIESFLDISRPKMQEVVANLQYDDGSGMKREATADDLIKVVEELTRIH
T4 sequence (Q9UKT9 whole entry): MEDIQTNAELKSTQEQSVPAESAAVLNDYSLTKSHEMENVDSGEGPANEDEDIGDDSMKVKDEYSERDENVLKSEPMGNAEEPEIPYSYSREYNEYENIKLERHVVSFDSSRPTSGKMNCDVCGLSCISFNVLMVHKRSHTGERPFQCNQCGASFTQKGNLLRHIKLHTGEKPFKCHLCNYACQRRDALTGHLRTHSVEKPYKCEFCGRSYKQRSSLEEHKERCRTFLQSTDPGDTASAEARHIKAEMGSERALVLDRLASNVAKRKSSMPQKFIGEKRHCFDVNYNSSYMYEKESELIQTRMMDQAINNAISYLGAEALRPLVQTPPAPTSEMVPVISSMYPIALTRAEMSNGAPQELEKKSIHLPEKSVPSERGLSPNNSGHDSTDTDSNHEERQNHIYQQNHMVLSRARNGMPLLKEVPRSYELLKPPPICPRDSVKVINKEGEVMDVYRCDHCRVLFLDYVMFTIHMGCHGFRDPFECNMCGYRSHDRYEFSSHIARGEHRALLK
T4 sequence (Q96SW2 whole entry): as the sequence (Q96SW2 whole entry) above
T4 sequence (Q16531 whole entry partner): as the sequence (Q16531 whole entry partner) above
T1 sequence (Q96SW2 whole entry): as the sequence (Q96SW2 whole entry) above
T6 sequence (Q13422 whole entry): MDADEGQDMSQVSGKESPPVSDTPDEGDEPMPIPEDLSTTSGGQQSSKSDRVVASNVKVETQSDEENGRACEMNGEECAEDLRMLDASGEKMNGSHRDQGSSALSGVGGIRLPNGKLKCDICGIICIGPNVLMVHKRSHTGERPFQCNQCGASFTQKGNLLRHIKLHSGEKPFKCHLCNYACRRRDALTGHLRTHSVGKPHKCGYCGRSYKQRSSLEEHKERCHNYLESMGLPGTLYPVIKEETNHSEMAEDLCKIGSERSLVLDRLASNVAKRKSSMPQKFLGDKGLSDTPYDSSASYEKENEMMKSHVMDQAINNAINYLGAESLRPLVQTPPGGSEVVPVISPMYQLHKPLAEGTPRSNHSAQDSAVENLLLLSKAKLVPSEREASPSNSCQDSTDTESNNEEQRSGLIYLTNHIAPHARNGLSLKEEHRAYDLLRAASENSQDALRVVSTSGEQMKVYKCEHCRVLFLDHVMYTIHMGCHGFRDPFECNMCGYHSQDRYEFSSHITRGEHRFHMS
T6 sequence (Q96SW2 whole entry): as the sequence (Q96SW2 whole entry) above
T6 sequence (Q16531 whole entry partner): as the sequence (Q16531 whole entry partner) above
T3 sequence (Q9UKS7 whole entry): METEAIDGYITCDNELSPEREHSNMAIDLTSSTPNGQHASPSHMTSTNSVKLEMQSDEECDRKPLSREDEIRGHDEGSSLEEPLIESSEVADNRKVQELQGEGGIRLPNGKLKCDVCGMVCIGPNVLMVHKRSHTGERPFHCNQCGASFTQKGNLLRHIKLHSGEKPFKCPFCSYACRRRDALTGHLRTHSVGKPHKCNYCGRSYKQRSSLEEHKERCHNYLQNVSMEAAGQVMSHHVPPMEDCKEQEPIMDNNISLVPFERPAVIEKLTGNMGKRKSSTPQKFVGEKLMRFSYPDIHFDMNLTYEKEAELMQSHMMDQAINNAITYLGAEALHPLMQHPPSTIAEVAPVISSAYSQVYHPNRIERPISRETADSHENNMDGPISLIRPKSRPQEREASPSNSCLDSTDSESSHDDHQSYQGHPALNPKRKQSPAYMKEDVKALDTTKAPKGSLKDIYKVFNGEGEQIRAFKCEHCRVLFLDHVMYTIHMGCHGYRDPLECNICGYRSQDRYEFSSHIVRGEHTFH
T3 sequence (Q96SW2 whole entry): as the sequence (Q96SW2 whole entry) above
T3 sequence (Q16531 whole entry partner): as the sequence (Q16531 whole entry partner) above
T5 sequence (P48729 whole entry): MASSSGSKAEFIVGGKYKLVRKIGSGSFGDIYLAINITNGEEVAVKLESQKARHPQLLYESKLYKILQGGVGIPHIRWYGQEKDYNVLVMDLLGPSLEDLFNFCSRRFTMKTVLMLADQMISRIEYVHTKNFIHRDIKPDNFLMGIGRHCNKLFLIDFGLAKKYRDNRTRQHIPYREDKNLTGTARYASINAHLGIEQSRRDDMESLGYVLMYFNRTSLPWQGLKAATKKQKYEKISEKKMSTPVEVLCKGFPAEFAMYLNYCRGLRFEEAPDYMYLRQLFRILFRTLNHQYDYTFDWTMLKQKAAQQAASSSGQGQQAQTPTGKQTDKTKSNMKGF
T5 sequence (Q96SW2 whole entry): as the sequence (Q96SW2 whole entry) above
T5 sequence (Q16531 whole entry partner): as the sequence (Q16531 whole entry partner) above

| SMILES | inhibition at 0.5 µM [1] | inhibition at 2 µM [1] | inhibition at 0.01 µM [2] | inhibition at 0.5 µM [2] | Wee1 substrate protein remaining % (WEE1; [4]) | IKZF2 substrate protein remaining % (IKZF2; [4]) | IKZF3 substrate protein remaining % (IKZF3; [4]) | CK1α substrate protein remaining % (CK1α; [4]) | IKZF 1 substrate protein remaining % (IKZF1; [4]) | GSPT1 substrate protein remaining % (GSPT1; [4]) | Wee1 substrate protein remaining % (WEE1; [5]) | IKZF2 substrate protein remaining % (IKZF2; [5]) | IKZF3 substrate protein remaining % (IKZF3; [5]) | CK1α substrate protein remaining % (CK1α; [5]) | IKZF 1 substrate protein remaining % (IKZF1; [5]) | GSPT1 substrate protein remaining % (GSPT1; [5]) | inhibition at 0.01 µM ([3]; Homo sapiens, MM1.S, 96 h, read-out: Inhibition Rate at 10 nM (%)) | Inhibition Rate at 500 nM (%) ([3]; MM.1S, 500 nM, 96 hours) |
| --- | --- | --- | --- | --- | --- | --- | --- | --- | --- | --- | --- | --- | --- | --- | --- | --- | --- | --- |
| Cc1cccc(N2CCN(Cc3ccc4c(c3)CN(C3CCC(=O)NC3=O)C4=S)CC2)n1 (centres unmarked) [GT-09214, 3-(5-((4-(6-methylpyridin-2-yl)piperazin-1-yl)methyl)-1-thioxoisoindolin-2-yl)piperidine-2,6-dione] | 60 to 80% | 80 to 100% | 10 to 18% | 40 to 60% | B (80%< substrate protein remaining %≤ 100%) | B (80%< substrate protein remaining %≤ 100%) | B (80%< substrate protein remaining %≤ 100%) | B (80%< substrate protein remaining %≤ 100%) | B (80%< substrate protein remaining %≤ 100%) | A (0% ≤ substrate protein remaining % ≤ 80%) | – | – | – | – | – | – | – | – |
| O=C1CCC(N2Cc3cc(CN4CCN(c5cccnc5)CC4)ccc3C2=S)C(=O)N1 (centres unmarked) [GT-09229, 3-(5-((4-(pyridin-3-yl)piperazin-1-yl)methyl)-1-thioxoisoindolin-2-yl)piperidine-2,6-dione] | 60 to 80% | 80 to 100% | 40 to 60% | 40 to 60% | – | – | – | – | – | – | – | – | – | – | – | – | – | – |
| Cc1cc(C2CCN(Cc3cccc4c3CN(C3CCC(=O)NC3=O)C4=S)CC2)cs1 (centres unmarked) [GT-08316, 3-(4-((4-(5-methylthiophen-3-yl)piperidin-1-yl)methyl)-1-thioxoisoindolin-2-yl)piperidine-2,6-dione] | 40 to 53% | 60 to 80% | 18 to 25% | 40 to 60% | – | – | – | – | – | – | A (0% ≤ substrate protein remaining % ≤ 80%) | B (80%< substrate protein remaining %≤ 100%) | B (80%< substrate protein remaining %≤ 100%) | B (80%< substrate protein remaining %≤ 100%) | B (80%< substrate protein remaining %≤ 100%) | B (80%< substrate protein remaining %≤ 100%) | – | – |
| Cc1ccsc1C1CCN(Cc2cccc3c2CN(C2CCC(=O)NC2=O)C3=S)CC1 (centres unmarked) [GT-08314, 3-(4-((4-(3-methylthiophen-2-yl)piperidin-1-yl)methyl)-1-thioxoisoindolin-2-yl)piperidine-2,6-dione] | 40 to 53% | 60 to 80% | 40 to 60% | 60 to 80% | – | – | – | – | – | – | A (0% ≤ substrate protein remaining % ≤ 80%) | B (80%< substrate protein remaining %≤ 100%) | B (80%< substrate protein remaining %≤ 100%) | B (80%< substrate protein remaining %≤ 100%) | B (80%< substrate protein remaining %≤ 100%) | B (80%< substrate protein remaining %≤ 100%) | – | – |
| O=C1CCC(N2Cc3c(CN4CCC(c5ccccc5)CC4)cccc3C2=S)C(=O)N1 (centres unmarked) [GT-08506, 3-(4-((4-phenylpiperidin-1-yl)methyl)-1-thioxoisoindolin-2-yl)piperidine-2,6-dione] | – | – | 30 to 40% | 40 to 60% | A (0% ≤ substrate protein remaining % ≤ 80%) | A (0% ≤ substrate protein remaining % ≤ 80%) | A (0% ≤ substrate protein remaining % ≤ 80%) | B (80%< substrate protein remaining %≤ 100%) | B (80%< substrate protein remaining %≤ 100%) | A (0% ≤ substrate protein remaining % ≤ 80%) | – | – | – | – | – | – | – | – |
| O=C1CCC(N2Cc3cc(CN4CCN(c5ncc(Cl)cc5Cl)CC4)ccc3C2=S)C(=O)N1 (centres unmarked) [GT-09226, 3-(5-((4-(3,5-dichloropyridin-2-yl)piperazin-1-yl)methyl)-1-thioxoisoindolin-2-yl)piperidine-2,6-dione] | 60 to 80% | 80 to 100% | 30 to 40% | 40 to 60% | – | – | – | – | – | – | – | – | – | – | – | – | – | – |
| O=C1CCC(N2Cc3c(CN4CC=C(c5ccnc(F)c5F)CC4)cccc3C2=S)C(=O)N1 (centres unmarked) [GT-08464, 3-(4-((2',3'-difluoro-3,6-dihydro-[4,4'-bipyridin]-1(2H)-yl)methyl)-1-thioxoisoindolin-2-yl)piperidine-2,6-dione] | 60 to 80% | 60 to 80% | – | – | A (0% ≤ substrate protein remaining % ≤ 80%) | B (80%< substrate protein remaining %≤ 100%) | B (80%< substrate protein remaining %≤ 100%) | B (80%< substrate protein remaining %≤ 100%) | B (80%< substrate protein remaining %≤ 100%) | A (0% ≤ substrate protein remaining % ≤ 80%) | – | – | – | – | – | – | 50 to 60% | la5 |
